Legend:
[1] = system: AB1054 OXA-23; assay: Meropenem potentiation (MPC@8), strain AB1054 OXA-23; type: cell-based, Acinetobacter baumannii; conditions: minimum BLI concentration inhibiting growth with meropenem 8 μg/mL; tested up to 20 μg/mL
[2] = system: AB1053 OXA-72; assay: Meropenem potentiation (MPC@8), strain AB1053 OXA-72; type: cell-based, Acinetobacter baumannii; conditions: minimum BLI concentration inhibiting growth with meropenem 8 μg/mL; tested up to 20 μg/mL
[3] = system: KP1086 OXA-48; assay: Biapenem potentiation (MPC@1), strain KP1086 OXA-48; type: cell-based; conditions: for BPM MPC1 OXA-48 KP1086: minimum BLI concentration inhibiting growth with biapenem 1 μg/mL, tested up to 40 μg/mL
Experimental: (§1) Biapenem was present in the test medium at 1 μg/mL. […] Table 3 summarizes the BLI potency of biapenem potentiation (MPC@1) for two strains overexpressing class A (KPC) and class D (OXA-48) carbapenemases. Biapenem MIC for each strain is also shown.

[4] = molecular target: purified class A, C and D enzymes (β-lactamases) (Klebsiella pneumoniae, UniProt Q6XEC0); assay: biochemical; type: biochemical; conditions: purified OXA-48; nitrocefin (NCF) as reporter substrate
[5] = molecular target: T1, purified class A, C and D enzymes (β-lactamases) (UniProt P0AD64, L31Q/G234S/E235K, species not given); assay: biochemical; type: biochemical; conditions: read-out: Ki (SHV-12, NCF); purified SHV-12; nitrocefin (NCF) as reporter substrate
T1 construct: Ki (SHV-12, NCF), uM; other: purified SHV-12; nitrocefin (NCF) as reporter substrate
T1 sequence (P0AD64 1-286 L31Q/G234S/E235K): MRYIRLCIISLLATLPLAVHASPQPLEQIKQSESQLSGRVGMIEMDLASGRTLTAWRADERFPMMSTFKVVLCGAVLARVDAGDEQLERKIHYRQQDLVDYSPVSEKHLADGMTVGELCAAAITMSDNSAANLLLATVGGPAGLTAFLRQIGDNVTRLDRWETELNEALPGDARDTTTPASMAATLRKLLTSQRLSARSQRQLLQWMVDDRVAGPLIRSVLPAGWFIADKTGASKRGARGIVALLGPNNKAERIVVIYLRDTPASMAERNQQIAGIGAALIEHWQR

[6] = molecular target: purified class A, C and D enzymes (β-lactamases) (Klebsiella pneumoniae, UniProt Q9F663); assay: biochemical; type: biochemical; conditions: purified KPC-2; nitrocefin (NCF) as reporter substrate
[7] = molecular target: T2, purified class A, C and D enzymes (β-lactamases) (Pseudomonas aeruginosa, UniProt P24735); assay: biochemical; type: biochemical
T2 construct: rows headed: Ki (Pa-AmpC, NCF), uM; other: purified Pa-AmpC; nitrocefin (NCF) as reporter substrate

[8] = molecular target: purified class A, C and D enzymes (β-lactamases) (Escherichia coli, UniProt Q9L5C7); assay: biochemical; type: biochemical; conditions: purified CTX-M-14; nitrocefin (NCF) as reporter substrate
[9] = molecular target: purified class A, C and D enzymes (β-lactamases) (Enterobacter cloacae, UniProt P05364); assay: biochemical; type: biochemical
[10] = molecular target: T3, purified class A, C and D enzymes (β-lactamases) (Acinetobacter baumannii, UniProt Q9L4P2); assay: biochemical; type: biochemical; conditions: purified OXA-23; nitrocefin (NCF) as reporter substrate
T3 construct: rows headed: Ki (OXA-23, NCF), uM; other: purified OXA-23; nitrocefin (NCF) as reporter substrate

[11] = system: KP1010 SHV-12; assay: Aztreonam potentiation (MPC@4), strain KP1010 SHV-12; conditions: minimum BLI concentration inhibiting growth with aztreonam 4 μg/mL; tested up to 40 μg/mL
[12] = system: KP1004 KPC-2; assay: Aztreonam potentiation (MPC@4), strain KP1004 KPC-2; conditions: minimum BLI concentration inhibiting growth with aztreonam 4 μg/mL; tested up to 40 μg/mL
[13] = system: EC1010 CMY-6; assay: Aztreonam potentiation (MPC@4), strain EC1010 CMY-6; conditions: minimum BLI concentration inhibiting growth with aztreonam 4 μg/mL; tested up to 40 μg/mL
[14] = system: KP1005 CTX-M-14; assay: Tigemonam potentiation (MPC@4), strain KP1005 CTX-M-14; conditions: minimum BLI concentration inhibiting growth with tigemonam 4 μg/mL; tested up to 40 μg/mL
[15] = system: KP1009 CTX-M-15; assay: Aztreonam potentiation (MPC@4), strain KP1009 CTX-M-15; conditions: minimum BLI concentration inhibiting growth with aztreonam 4 μg/mL; tested up to 40 μg/mL
[16] = system: ec302 TEM-10; assay: Aztreonam potentiation (MPC@4), strain ec302 TEM-10; conditions: minimum BLI concentration inhibiting growth with aztreonam 4 μg/mL; tested up to 40 μg/mL
[17] = system: ec308 SHV-5; assay: Aztreonam potentiation (MPC@4), strain ec308 SHV-5; conditions: minimum BLI concentration inhibiting growth with aztreonam 4 μg/mL; tested up to 40 μg/mL
[18] = system: KP1004 KPC-2; assay: Biapenem potentiation (MPC@1), strain KP1004 KPC-2; type: cell-based; conditions: for BPM MPC1 KP1004 KPC-2: minimum BLI concentration inhibiting growth with biapenem 1 μg/mL, tested up to 40 μg/mL
Experimental: as §1

[19] = system: ECL1002; assay: Aztreonam potentiation (MPC@4), strain ECL1002; conditions: minimum BLI concentration inhibiting growth with aztreonam 4 μg/mL; tested up to 40 μg/mL
[20] = system: PAM1154/KPC-2; assay: Biapenem potentiation MPC64 in PAM1154/KPC-2 (efflux deficient, lacks MexAB-OprM); type: cell-based, Pseudomonas aeruginosa; conditions: Pseudomonas aeruginosa; P. aeruginosa PAM1154 expressing KPC-2; biapenem alone
Experimental: (§2) Efflux of BLIs from Pseudomonas aeruginosa by the MexAB-OprM efflux pump was also evaluated. The plasmid expressing the gene encoding KPC-2 was introduced into two strains of P. aeruginosa, PAM1032 and PAM 1154 that overexpressed or lacked MexAB-OprM, respectively. […] Potency of BLIs to potentiate biapenem in these strains was determined.

[21] = system: PAM1032/KPC-2; assay: Biapenem potentiation MPC64 in PAM1032/KPC-2 (efflux proficient, overexpresses MexAB-OprM); type: cell-based, Pseudomonas aeruginosa; conditions: Pseudomonas aeruginosa; P. aeruginosa PAM1032 expressing KPC-2; biapenem alone
Experimental: as §2

SMILES	MPM MPC8 AB1054 OXA-23 [1]	MPM MPC8 AB1053 OXA-72 [2]	BPM MPC1 OXA-48 KP1086 [3]	Ki (OXA-48, NCF), uM [4]	Ki [5]	Ki (KPC-2, NCF), uM [6]	Ki [7]	Ki (CTX-M-14, NCF), uM [8]	Ki (P99, NCF), uM [9]	Ki [10]	AZT MPC4 SHV-12 KP1010 [11]	AZT MPC4 KPC-2 KP1004 [12]	AZT MPC4 CMY-6 EC1010 [13]	TIG MPC4 CTX-M-14 KP1005 [14]	AZT MPC4 CTX-M-15 KP1009 [15]	AZT MPC4 TEM-10 ec302 [16]	AZT MPC4 SHV-5 ec308 [17]	BPM MPC1 KP1004 KPC-2 [18]	AZT MPC4 ECL1002 [19]	further results
O=C([O-])c1c(OC(F)F)ccc2c1O[B-](O)(O)CC2.[Na+].[Na+] [Compound 56, Disodium; 8-(difluoromethoxy)-4,4-dihydroxy-5-oxa-4-boranuidabicyclo[4.4.0]deca-1(6),7,9-triene-7-carboxylate]	X (X = MPC@1 ≤ 5 μg/mL)	X (X = MPC@1 ≤ 5 μg/mL)	X (X = MPC@1 ≤ 5 μg/mL)	X (X = Ki ≤ 0.1 μM)	< 100 nM	X (X = Ki ≤ 0.1 μM)	< 100 nM	X (X = Ki ≤ 0.1 μM)	X (key: X = Ki ≤ 0.1 μM; Y = 0.1 μM < Ki ≤ 1 μM; Z = Ki > 1 μM)	< 100 nM	X (X = MPC@4 ≤ 5 μg/mL)	X (X = MPC@4 ≤ 5 μg/mL)	X (X = MPC@4 ≤ 5 μg/mL)	X (X = MPC@4 ≤ 5 μg/mL)	X (X = MPC@4 ≤ 5 μg/mL)	X (X = MPC@4 ≤ 5 μg/mL)	X (X = MPC@4 ≤ 5 μg/mL)	X (X = MPC@1 ≤ 5 μg/mL)	X (X = MPC@4 ≤ 5 μg/mL)	
C[C@@H](O)[C@H]1C(=O)N2C(C(=O)[O-])=C(SC3Cn4cnc[n+]4C3)[C@H](C)[C@H]12 (some centres unmarked) [Biapenem, reference compound]																				MIC ([3]; strain KP1086 OXA-48, biapenem alone): 16 µg/mL; MIC [20]: 32 µg/mL; MIC ([18]; strain KP1004 KPC-2, biapenem alone): 32 µg/mL; MIC [21]: 32 µg/mL
NCCn1cc(-c2ccc3c(c2C(=O)O)O[B-](O)(O)CC3)nn1 [Compound 17, Disodium; 8-[1-(2-aminoethyl)triazol-4-yl]-4,4-dihydroxy-5-oxa-4-boranuidabicyclo[4.4.0]deca-1(6),7,9-triene-7-carboxylate]	X (X = MPC@1 ≤ 5 μg/mL)	X (X = MPC@1 ≤ 5 μg/mL)	X (X = MPC@1 ≤ 5 μg/mL)	X (X = Ki ≤ 0.1 μM)	100 to 1000 nM	X (X = Ki ≤ 0.1 μM)	100 to 1000 nM	X (X = Ki ≤ 0.1 μM)	Y (key: X = Ki ≤ 0.1 μM; Y = 0.1 μM < Ki ≤ 1 μM; Z = Ki > 1 μM)	< 100 nM	Y (Y = 5 μg/mL < MPC@4 ≤ 20 μg/mL)	X (X = MPC@4 ≤ 5 μg/mL)	Y (Y = 5 μg/mL < MPC@4 ≤ 20 μg/mL)	Z (Z = MPC@4 > 20 μg/mL)	Z (Z = MPC@4 > 20 μg/mL)	Z (Z = MPC@4 > 20 μg/mL)	Z (Z = MPC@4 > 20 μg/mL)	X (X = MPC@1 ≤ 5 μg/mL)	Z (Z = MPC@4 > 20 μg/mL)	
C#Cc1ccc2c(c1C(=O)[O-])O[B-](O)(O)CC2.[Na+].[Na+] [Compound 18, Disodium; 8-ethynyl-4,4-dihydroxy-5-oxa-4-boranuidabicyclo[4.4.0]deca-1(6),7,9-triene-7-carboxylate]	X (X = MPC@1 ≤ 5 μg/mL)	X (X = MPC@1 ≤ 5 μg/mL)	X (X = MPC@1 ≤ 5 μg/mL)	X (X = Ki ≤ 0.1 μM)	< 100 nM	X (X = Ki ≤ 0.1 μM)	< 100 nM	X (X = Ki ≤ 0.1 μM)	X (key: X = Ki ≤ 0.1 μM; Y = 0.1 μM < Ki ≤ 1 μM; Z = Ki > 1 μM)	< 100 nM	X (X = MPC@4 ≤ 5 μg/mL)	X (X = MPC@4 ≤ 5 μg/mL)	X (X = MPC@4 ≤ 5 μg/mL)	Z (Z = MPC@4 > 20 μg/mL)	X (X = MPC@4 ≤ 5 μg/mL)	X (X = MPC@4 ≤ 5 μg/mL)	X (X = MPC@4 ≤ 5 μg/mL)	X (X = MPC@1 ≤ 5 μg/mL)	X (X = MPC@4 ≤ 5 μg/mL)	
O=C([O-])c1c(-c2ccn[nH]2)ccc2c1O[B-](O)(O)CC2.[Na+].[Na+] [Compound 15, Disodium; 4,4-dihydroxy-8-(1H-pyrazol-5-yl)-5-oxa-4-boranuidabicyclo[4.4.0]deca-1(6),7,9-triene-7-carboxylate]	X (X = MPC@1 ≤ 5 μg/mL)	X (X = MPC@1 ≤ 5 μg/mL)	X (X = MPC@1 ≤ 5 μg/mL)	X (X = Ki ≤ 0.1 μM)	< 100 nM	X (X = Ki ≤ 0.1 μM)	< 100 nM	X (X = Ki ≤ 0.1 μM)	X (key: X = Ki ≤ 0.1 μM; Y = 0.1 μM < Ki ≤ 1 μM; Z = Ki > 1 μM)	< 100 nM	X (X = MPC@4 ≤ 5 μg/mL)	X (X = MPC@4 ≤ 5 μg/mL)	X (X = MPC@4 ≤ 5 μg/mL)	Z (Z = MPC@4 > 20 μg/mL)	X (X = MPC@4 ≤ 5 μg/mL)	X (X = MPC@4 ≤ 5 μg/mL)	X (X = MPC@4 ≤ 5 μg/mL)	X (X = MPC@1 ≤ 5 μg/mL)	X (X = MPC@4 ≤ 5 μg/mL)	
